Results reported in ChEMBL document CHEMBL1799925, “Inhibition of sphingosine 1-phosphate lyase for the treatment of rheumatoid arthritis: discovery of (E)-1-(4-((1R,2S,3R)-1,2,3,4-tetrahydroxybutyl)-1H-imidazol-2-yl)ethanone oxime (LX2931) and (1R,2S,3R)-1-(2-(isoxazol-3-yl)-1H-imidazol-4-yl)butane-1,2,3,4-tetraol (LX2932)” (J Med Chem, 2010).

Columns and labels:
[1] = Half life in 129/SvEvBrd X C57BL/6 F1 mouse at 10 mg/kg, po by LC/MS/MS analysis; type: ADME, organism-based; design: dose 10 mg/kg, route oral; settings: in vivo
[2] = Cmax in 129/SvEvBrd X C57BL/6 F1 mouse at 10 mg/kg, po by LC/MS/MS analysis; type: ADME, organism-based; design: dose 10 mg/kg, route oral; settings: in vivo
[3] = Tmax in 129/SvEvBrd X C57BL/6 F1 mouse at 10 mg/kg, po by LC/MS/MS analysis; type: ADME, organism-based; design: dose 10 mg/kg, route oral; settings: in vivo
[4] = Volume of distribution at steady state in 129/SvEvBrd X C57BL/6 F1 mouse at 1 mg/kg, iv by LC/MS/MS analysis; type: ADME, organism-based; design: dose 1 mg/kg, route intravenous; settings: in vivo, read-out: Vdss
[5] = Clearance in 129/SvEvBrd X C57BL/6 F1 mouse at 1 mg/kg, iv by LC/MS/MS analysis; type: ADME, organism-based; design: dose 1 mg/kg, route intravenous; settings: in vivo
[6] = Bioavailability in 129/SvEvBrd X C57BL/6 F1 mouse determined from 1 mg/kg, iv and 10 mg/kg, po by LC/MS/MS analysis; type: ADME, organism-based; settings: 129/SvEvBrd X C57BL/6 F1, mouse, in vivo
[7] = Tmax in Sprague-Dawley rat at 10 mg/kg, po by LC/MS/MS analysis; type: ADME, organism-based; design: dose 10 mg/kg, route oral; settings: in vivo
[8] = Cmax in Sprague-Dawley rat at 10 mg/kg, po by LC/MS/MS analysis; type: ADME, organism-based; design: dose 10 mg/kg, route oral; settings: in vivo
[9] = AUC (0 to infinity) in Sprague-Dawley rat at 10 mg/kg, po by LC/MS/MS analysis; type: ADME, organism-based; design: time infinity, dose 10 mg/kg, route oral; settings: plasma
Rattus norvegicus [10] = assay: Volume of distribution at steady state in Sprague-Dawley rat at 10 mg/kg, po by LC/MS/MS analysis; type: ADME, organism-based; design: dose 10 mg/kg, route oral; settings: in vivo
[11] = Clearance in Sprague-Dawley rat at 1 mg/kg, iv by LC/MS/MS analysis; type: ADME, organism-based; design: dose 1 mg/kg, route intravenous; settings: in vivo
[12] = Oral bioavailability in Sprague-Dawley rat determined from 1 mg/kg, iv and 10 mg/kg, po by LC/MS/MS analysis; type: ADME, organism-based; settings: in vivo
[13] = Tmax in Beagle dog at 50 mg/kg, po by LC/MS/MS analysis; type: ADME, organism-based, Canis lupus familiaris; design: dose 50 mg/kg, route oral; settings: in vivo
[14] = Cmax in Beagle dog at 50 mg/kg, po by LC/MS/MS analysis; type: ADME, organism-based, Canis lupus familiaris; design: dose 50 mg/kg, route oral; settings: in vivo
[15] = AUC (0 to infinity) in Beagle dog at 50 mg/kg, po by LC/MS/MS analysis; type: ADME, organism-based, Canis lupus familiaris; design: dose 50 mg/kg, route oral, time infinity; settings: plasma
Canis familiaris [16] = assay: Volume of distribution at steady state in Beagle dog at 50 mg/kg, po by LC/MS/MS analysis; type: ADME, organism-based, Canis lupus familiaris; design: dose 50 mg/kg, route oral; settings: in vivo
[17] = Clearance in Beagle dog at 1 mg/kg, iv by LC/MS/MS analysis; type: ADME, organism-based, Canis lupus familiaris; design: dose 1 mg/kg, route intravenous; settings: in vivo
[18] = Bioavailability in Beagle dog determined from 1 mg/kg, iv and 50 mg/kg, po by LC/MS/MS analysis; type: ADME, organism-based, Canis lupus familiaris; settings: in vivo
[19] = Tmax in cynomolgus monkey at 30 mg/kg, po by LC/MS/MS analysis; type: ADME, organism-based, Macaca fascicularis; design: dose 30 mg/kg, route oral; settings: in vivo
[20] = Cmax in cynomolgus monkey at 30 mg/kg, po by LC/MS/MS analysis; type: ADME, organism-based, Macaca fascicularis; design: dose 30 mg/kg, route oral; settings: in vivo
[21] = AUC (0 to infinity) in cynomolgus monkey at 30 mg/kg, po by LC/MS/MS analysis; type: ADME, organism-based, Macaca fascicularis; design: dose 30 mg/kg, route oral, time infinity; settings: plasma
Cynomolgus monkey [22] = assay: Volume of distribution at steady state in cynomolgus monkey at 30 mg/kg, po by LC/MS/MS analysis; type: ADME, organism-based, Macaca fascicularis; design: dose 30 mg/kg, route oral; settings: in vivo
[23] = Clearance in cynomolgus monkey at 1 mg/kg, iv by LC/MS/MS analysis; type: ADME, organism-based, Macaca fascicularis; design: dose 1 mg/kg, route intravenous; settings: in vivo
[24] = Bioavailability in cynomolgus monkey determined from 1 mg/kg, iv and 30 mg/kg, po by LC/MS/MS analysis; type: ADME, organism-based, Macaca fascicularis; settings: in vivo
[25] = Tmax in healthy human at 1 mg/kg, po by LC/MS/MS analysis; type: ADME, organism-based; design: dose 1 mg/kg, route oral; settings: in vivo
[26] = Cmax in healthy human at 1 mg/kg, po by LC/MS/MS analysis; type: ADME, organism-based; design: dose 1 mg/kg, route oral; settings: in vivo
[27] = AUC (0 to infinity) in healthy human at 1 mg/kg, po by LC/MS/MS analysis; type: ADME, organism-based; design: time infinity, dose 1 mg/kg, route oral; settings: plasma
Rattus norvegicus [28] = assay: Increase in S1P level in Sprague-Dawley rat thymus at 30 mg/kg, po administered daily for 3 days measured after 18 hrs […] relative to untreated control; type: functional
Rattus norvegicus [29] = assay: Increase in S1P level in Sprague-Dawley rat spleen at 30 mg/kg, po administered daily for 3 days measured after 18 hrs […] relative to untreated control; type: functional
Rattus norvegicus [30] = assay: Increase in S1P level in Sprague-Dawley rat jejunum at 30 mg/kg, po administered daily for 3 days measured after 18 hrs […] relative to untreated control; type: functional
Mus musculus [31] = assay: Immunomodulatory activity in mouse assessed as induction of lymphopenia at 30 to 100 mg/kg, po administered as single dose measured after 18 hrs; type: functional; settings: dose mg/kg 30-100
Mus musculus [32] = assay: Antiarthritic activity in […] collagen-induced arthritic mouse assessed as decrease in circulating T cells at 100 mg/kg, po qd administered one day before collagen challenge; type: functional, T-cell; design: scale not given: the % may be the effect or the level left
Canis familiaris [33] = assay: Cardiotoxicity in Beagle dog assessed as increase in heart rate at 500 mg/kg, po administered as single dose after 24 hrs by electrocardiogram analysis; type: toxicity, organism-based, Canis lupus familiaris; design: dose 500 mg/kg, route oral; settings: in vivo
Cynomolgus monkey [34] = assay: Cardiotoxicity in cynomolgus monkey assessed as increase in heart rate at 1000 mg/kg, po administered as single dose after 24 hrs by electrocardiogram analysis; type: toxicity, organism-based, Macaca fascicularis; design: dose 1000 mg/kg, route oral; settings: in vivo
Homo sapiens [35] = assay: Immunomodulatory activity in arthritic patient assessed as decrease in peripheral lymphocytes at […], po administered as single dose after 48 hrs; type: functional; design: scale not given: the % may be the effect or the level left
Homo sapiens [36] = assay: Toxicity in arthritic patient assessed as tolerability at […], po administered as single dose; type: organism-based; design: route oral; settings: in vivo
Mus musculus [37] = assay: Immunomodulatory activity in 129/SvEvBrd X C57BL/6 F1 mouse assessed as decrease in peripheral blood lymphocyte count at 30 mg/kg, po measured after 18 hrs by complete blood count analysis relative to control; type: ADME, organism-based; design: dose 30 mg/kg, route oral; scale not given: the % may be the effect or the level left; settings: in vivo
[38] = AUC (0 to infinity) in 129/SvEvBrd X C57BL/6 F1 mouse at 10 mg/kg, po by LC/MS/MS analysis; type: ADME, organism-based, Plasma; design: time infinity, dose 10 mg/kg, route oral; settings: 129/SvEvBrd X C57BL/6 F1, mouse, plasma

half-life [1]: 1.6 h
Cmax [2]: 3.6 µM
Tmax [3]: 0.45 h
Vd [4]: 0.9 L/kg
clearance [5]: 7.6 mL/min/kg
bioavailability [6]: 6.8%
Tmax [7]: 2 h
Cmax [8]: 2.7 µM
AUC(0-inf) [9]: 18.7 µM·h
Vdss (Rattus norvegicus [10]): 0.6 L/kg
clearance [11]: 10.2 mL/min/kg
bioavailability [12]: 26%
Tmax [13]: 2 h
Cmax [14]: 79.5 µM
AUC(0-inf) [15]: 323 µM·h
Vdss (Canis familiaris [16]): 0.3 L/kg
clearance [17]: 3.5 mL/min/kg
bioavailability [18]: 32.1%
Tmax [19]: 2.3 h
Cmax [20]: 16.9 µM
AUC(0-inf) [21]: 70.1 µM·h
Vdss (Cynomolgus monkey [22]): 0.5 L/kg
clearance [23]: 4.8 mL/min/kg
bioavailability [24]: 16.4%
Tmax [25]: 2 h
Cmax [26]: 3 µM
AUC(0-inf) [27]: 19 µM·h
Activity (Mus musculus [37]): -60%
AUC(0-inf) [38]: 8.8 µM·h
Structure (SMILES): C/C(=N\O)c1nc([C@@H](O)[C@H](O)[C@H](O)CO)c[nH]1.Cl
fold change (FC) (Rattus norvegicus [28]): 80
fold change (FC) (Rattus norvegicus [29]): 24
fold change (FC) (Rattus norvegicus [30]): 45
Activity (Mus musculus [31]): 40%
Activity (Mus musculus [32]): 40%
Activity (Canis familiaris [33]): Non-toxic
Activity (Cynomolgus monkey [34]): Non-toxic
Activity (Homo sapiens [35]): 50%
Activity (Homo sapiens [36]): Non-toxic
